# Source: US12264175B2, “Compositions and methods for capping RNAS” (Verve Therapeutics, Inc., priority 2020, dated 2025)
# What was measured:
# [1] = system: RIG-I; test: Immune stimulation of capped mRNA in HEK-Lucia RIG-I cell reporter model; assay type: cell-based
# Procedure: LNPs are prepared and administered in vivo to mice as in Example 11(A,B). Blood is collected at appropriate time points, typically at intervals between 1-48 hours post-dose and terminal end point, and processed to serum or plasma per techniques well known in the art. Serum or plasma cytokine and chemokine levels are measured using V-PLEX cytokine and chemokine detection kits. Cytokine and chemokine levels are compared to animals treated with buffer alone as well as pre-dose sampling of the treatment animals. In some instances, the immune stimulation of capped mRNA is assessed after in vitro transfection to reporter cell lines such as HEK-Lucia RIG-I cell reporter model, which produces luciferase signal in the presence of IFN-stimulated response elements such as uncapped mRNA. This cell model is cultured and transfected as described in Example 7, and luciferase activity is measured using a luciferase activity kit and plate reader. It is known in the art that uncapped mRNA produces a RIG-I-dependent IFN immune response, and capped mRNA lessens this immune stimulation. […] The results of this example were compared using mRNA made with a commercially available 5′ end initiator, 1002a, as a reference.
# [2] = system: mouse PCSK9 (mPCSK9); test: In vivo base editing in mouse with LNP of sgRNA and capped ABE mRNA (NGS editing efficiency); conditions: LNP with sgRNA targeting mPCSK9 and ABE mRNA; mice; FIG. 7
# Procedure: Lipid nanoparticles (LNPs) are generated by microfluidic mixing using the Precision Nanosystems NanoAssemblr system according to the manufacturer's protocol, with some optimization for individual payloads. The resulting LNPs are filtered using 0.2-micron filters and stored at 4° C. or frozen at […]
# LNPs used in these studies are prepared as described above in Example 6 (A), comprising chemically synthesized sgRNAs targeting the mouse ANGPTL3 (mANGPTL3) and/or mouse PCSK9 (mPCSK9) genes and SpCas9 or ABE8.8 mRNA in a 1:1 weight ratio, are administered to C57BL/6 mice (n=5) intravenously via the lateral tail vein or retro-orbital sinus in a total volume of 5-10 ml/kg. […]
# Paired-end reads are analyzed with the CRISPResso2 pipeline (Clement, K. et al., Nat. Biotech. 2019, 37, 224-226). Briefly, low-quality reads are filtered out, adapter sequences are trimmed from the reads, and the paired-end reads are merged and aligned to the amplicon sequence. The editing percentage is calculated as the number of reads supporting […], over the total number of aligned reads. For ABE, the editing percentage is calculated as the number of reads supporting […], over the total number of aligned reads. […]
# [3] = target: T7 RNA polymerase (Escherichia phage T7, UniProt P00573); test: One-pot IVT preparation of 5′ capped mRNA (production yield, full-length purity); assay type: biochemical
# Text: The 5′ end initiator, 1007a, (FIG. 1A) was used to prepare capped mRNAs that encode for ABE and luciferase proteins. In this Example and for all others described herein, the ABE mRNA sequence was MA004 (SEQ. 0001) and the luciferase mRNA sequence was the Photinus pyralis (Firefly) luciferase sequence described in NCBI reference sequence XM_031473197.1. These mRNA can be produced by different methods well known in the art. One of such methods used herein was in vitro transcription (IVT) using T7 polymerase; or in other embodiments, additional RNA polymerase variants. This IVT reaction to produce mRNA used a linearized DNA template that comprised a T7 polymerase promoter and associated regulatory sequences, mRNA coding sequence (CDS), 3′ and 5′ untranslated regions (UTRs), poly A tail, and additional sequence elements to facilitate and modulate mRNA stability and in vivo performance. Prior to IVT, the DNA template was in the form of a plasmid; in other embodiments the DNA template is in the form of a PCR product, synthetic DNA product, or any other double-stranded DNA construct. Linearization of the DNA template with a restriction digestion enzyme was performed in order to promote run-off transcription. The typical IVT reaction included T7 polymerase, DNA template, RNase inhibitor, cap analog, inorganic pyrophosphatase, and the naturally occurring ribonucleoside triphosphates (NTPs) such as GTP, ATP, CTP, and N1-methyl pseudouridine triphosphosphate; in some embodiments NTPs include UTP or modified NTPs such as pseudouridine, 5′methyl cytidine, 5-methoxy uridine, N6-methyl adenosine, and N4-acetyl cytidine. The 1007a 5′ end initiator was added to the IVT reaction along with ATP, GTP, CTP, and N1-methyl pseudouridine triphosphate at a 1:1 initiator-to-NTP molar ratio and additional ratios described in Example 5 (B). Poly A tail was encoded in the DNA template that was added to the mRNA during transcription; in some instances, poly A tail is added to the mRNA after the IVT reaction using an RNA ligase enzyme. Finally, T7 RNA polymerase was added to the mixture and the IVT reaction was run at 37° C. for about 1-4 hours. After IVT, DNase was added to the transcription mixture to remove DNA template; in some instances, residual DNA is removed with chromatography. This mRNA was purified to remove residual reaction products and impurities, and stored in 1 mM citrate buffer. Characterization of production yield and mRNA full-length purity was performed by UV spectrometry and capillary gel electrophoresis methods, which are known in the art. […] Similar IVT and purification process are used to produce mRNA encoding SpCas9, Cas12b, CBE, and other ABEs; in all cases the DNA template, reaction conditions, and purification parameters are optimized for the specific gene of interest.
# Similarly, ABE encoding mRNA with 5′ end region, 1107a, (FIG. 1B) was produced and characterized as described in the paragraph above.
# Chain of T7 RNA polymerase (P00573 whole entry): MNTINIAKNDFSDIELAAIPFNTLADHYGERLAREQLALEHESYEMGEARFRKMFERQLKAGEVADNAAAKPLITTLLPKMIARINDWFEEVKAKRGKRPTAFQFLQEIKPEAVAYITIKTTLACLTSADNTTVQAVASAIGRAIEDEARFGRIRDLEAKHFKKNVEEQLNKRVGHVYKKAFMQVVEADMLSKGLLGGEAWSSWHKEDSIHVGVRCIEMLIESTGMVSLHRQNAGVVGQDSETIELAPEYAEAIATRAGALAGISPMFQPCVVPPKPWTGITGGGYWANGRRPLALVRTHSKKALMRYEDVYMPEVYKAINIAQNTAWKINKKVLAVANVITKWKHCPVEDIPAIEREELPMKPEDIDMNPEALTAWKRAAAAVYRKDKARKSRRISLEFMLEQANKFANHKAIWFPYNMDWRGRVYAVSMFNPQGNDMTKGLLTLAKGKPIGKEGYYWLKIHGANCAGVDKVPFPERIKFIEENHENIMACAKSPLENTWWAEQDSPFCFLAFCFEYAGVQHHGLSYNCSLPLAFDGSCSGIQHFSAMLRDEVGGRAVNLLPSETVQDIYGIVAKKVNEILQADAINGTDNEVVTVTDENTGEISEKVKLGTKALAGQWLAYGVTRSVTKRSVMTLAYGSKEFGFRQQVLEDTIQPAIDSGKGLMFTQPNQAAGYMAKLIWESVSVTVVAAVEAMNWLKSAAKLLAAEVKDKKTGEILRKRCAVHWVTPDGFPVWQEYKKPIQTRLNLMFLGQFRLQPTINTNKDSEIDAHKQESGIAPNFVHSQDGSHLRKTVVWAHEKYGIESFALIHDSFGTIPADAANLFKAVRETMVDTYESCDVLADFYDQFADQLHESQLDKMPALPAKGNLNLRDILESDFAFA
smiles,measurement,setting,value
"COC1C(OP([O-])(=S)OCC2OC(n3cnc4c(=O)[nH]c(N)nc43)C(O)C2O)C(COP(=O)(O)OP(=O)(O)OP(=O)(O)OCC2OC(n3c[n+](C)c4c(=O)[nH]c(N)nc43)C(O)C2O)OC1n1cnc2c(N)ncnc21 (stereo not drawn) [1007a, m^7G(ppp)Am(ps)G]",RIG-I activity as compared to uncapped mRNA,"[1]; mRNA with the 5′ end motif, FIG. 8",reduced
same,RIG-I activation as a result of the chemical modifications to the cap structure,[1]; reference mRNA made with 1002a,did not appear to increase
same,hepatocyte editing levels as compared to mRNA with 5′ end region motif 1002a,[2],similar
same,final production yield of mRNA,"[3]; ABE encoding mRNA made with the 5′ end initiator, T7 IVT, FIG. 2",about 3.3 mg per 1 ml of IVT reaction
same,mRNA full-length purity,"[3]; ABE encoding mRNA made with the 5′ end initiator, capillary gel electrophoresis, FIG. 3",about 88%
same,amount of full-length mRNA produced,"[3]; initiator-to-NTP ratio ranging from 1:1 down to 1:5, FIG. 3",did not reduce
